According to patent publication US20260176262A1, “KRAS INHIBITORS, PREPARATION METHOD THEREFOR, AND PHARMACEUTICAL USE THEREOF” (ABBISKO THERAPEUTICS CO., LTD., priority 2021, published 2026):
pIC50: −log10 of the molar value. Read-outs that look alike come from different tables or passages of the source.

Columns and labels:
[1] = target: KRAS^G12D/cRAF (Homo sapiens, UniProt P01116, G12D); test: KRAS G12D/cRAF binding test (Alphalisa); details: His-tagged KRAS G12D + GMPPNP, GST-tagged cRAF
Experimental: The compound was dissolved in 100% DMSO at a starting concentration of 5 mM and diluted in DMSO with a 3-fold serial dilution method for a total of 8 concentration points. 1 μL of the compound or DMSO at each concentration point was added into 99 μL of the experimental buffer to obtain 10× stock solution.
• 1) 4 μL of the working mixture solution of His-tagged KRAS^G12D and GMPPNP was added to the 384-well plate. • 2) The 10× compound stock solution or 1% DMSO was added to the 384-well plate. • 3) The plate was centrifuged at 1000 rpm for 1 minute. • 4) 4 μL of GST-tagged cRAF solution was added to the 384-well plate. • 5) The plate was centrifuged at 1000 rpm for 1 minute. • 6) The plate was incubated at room temperature for 15 minutes. • 7) 10 μL of detection working solution was added to the 384-well plate. • 8) The plate was centrifuged at 1000 rpm for 1 minute. • 9) The plate was incubated at room temperature for 60 minutes. • 10) The 384-well plate was placed into Envision and assay data was obtained.
(§1) The ratio for each compound concentration was calculated from the signal of the DMSO control group contained in each assay plate and the Alphalisa signal in each compound well. The compound concentration required for inhibitory concentration at 50% (IC50) was determined using a four-parameter logarithmic dose-response equation by testing the concentration of the compound and the value of the ratio. The endpoint value (IC50) of the reference compound was assessed in each experiment as a quality control measure. If the endpoint value is within three times the expected value, the experiment may be considered acceptable.

[2] = tested on: AGS cell; test: Anti-proliferative 2D CTG assay, AGS cells; type: cell-based; details: Homo sapiens, 72 h, AGS cells, incubated 3 days, CTG, read-out: AGS cell IC50
Experimental: When the cell confluence was about 80%, the cells were isolated with 0.25% trypsin. Isolated cells were resuspended in 5 mL fresh cell culture medium and centrifuged for cell collection. Meanwhile, the number of cells was also calculated. The cells were then suspended in culture medium of medium concentration. The cells were placed into a 96-well plate with 1000 cells/well for AGS and 1000 cells/well for GP2D. The 96-well plate was placed in an incubator at 37° C. and incubated overnight.
1.2 Day 1 Compound Treatment From the 10 mM stock solution, with a ratio of 1:5, 10-point serial dilutions were performed. The 10× medium containing the compound was transferred into corresponding wells of the 96 wells. The final maximum compound concentration was […] and the final DMSO concentration was 0.1%. The 96-well plate was placed in a 37° C. incubator, the AGS cells were incubated for 3 days, and the GP2D cells were incubated for 4 days.
50 μL/well of detection reagent (CTG) was added to the AGS cells, and the signal was read in an Envision machine.
as §1, with “The percent inhibition (%) at” for “The ratio for”, “signal in” for “signal of”, “the HPE and ZPE” for “the DMSO”, “control wells and the fluorescence signal in the individual compound wells included” for “control group contained”, “assay plate. […]” for “assay plate and the Alphalisa signal in each compound well.”, “the inhibition percentage value.” for “the value of the ratio.”

Chain of KRAS^G12D/cRAF (P01116 1-188 isoform P01116-2 G12D): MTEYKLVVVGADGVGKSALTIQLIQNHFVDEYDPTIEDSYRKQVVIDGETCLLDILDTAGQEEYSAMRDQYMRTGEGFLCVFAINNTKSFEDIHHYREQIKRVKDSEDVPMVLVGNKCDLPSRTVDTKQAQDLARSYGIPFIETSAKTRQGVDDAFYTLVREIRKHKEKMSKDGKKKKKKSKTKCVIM

`[2H]C([2H])([2H])OCC12CCC(C)(CN(c3nc(OC[C@@]45CCCN4C[C@H](F)C5)nc4c(F)c(-c5cc(O)cc6ccc(F)c(C#C)c56)ncc34)C1)N2` (stereo partly drawn) [Example 18, 5-ethynyl-6-fluoro-4-(8-fluoro-2-(((2R,7aS)-2-fluorotetrahydro-1H-pyrrolizin-7a(5H)-yl)methoxy)-4-(1-((methoxy-d3)methyl)-5-methyl-3,8-diazabicyclo [3.2.1]octan-3-yl)pyrido[4,3-d]pyrimidin-7-yl)naphthalen-2-ol] showed a pIC50 ([1]; class symbols) of 6.30 to 7.30 and a pIC50 ([2]; class symbols) of 6.30 to 7.30.
`C#Cc1c(F)ccc2cc(O)cc(-c3ncc4c(N5CC6CCC(CC)(C5)N6)nc(OC[C@@]56CCCN5C[C@H](F)C6)nc4c3F)c12` (stereo partly drawn) [Example 19, 4-(4-(1-ethyl-3,8-diazabicyclo[3.2.1]octan-3-yl)-8-fluoro-2-(((2R,7aS)-2-fluorotetrahydro-1H -pyrrolizin-7a(5H)-yl)methoxy)pyrido[4,3-d]pyrimidin-7-yl)-5-ethynyl-6-fluoronaphthalen-2-ol] gave a pIC50 ([1]; class symbols) of 6.30 to 7.30 and a pIC50 ([2]; class symbols) greater than 7.30.
Work on `C#Cc1c(F)ccc2cc(O)cc(-c3ncc4c(N5CC6(C)CCC(C)(C5)N6)nc(OC[C@@]56CCCN5C[C@H](F)C6)nc4c3F)c12` [Example 20, 4-(4-(1,5-dimethyl-3,8-diazabicyclo[3.2.1]octan-3-yl)-8-fluoro-2-(((2R,7aS)-2-fluorotetrahydro-1H-pyrrolizin-7a(5H)-yl)methoxy)pyrido[4,3-d]pyrimidin-7-yl)-5-ethynyl-6-fluoronaphthalen-2-ol] yielded a pIC50 ([1]; class symbols) of 6.30 to 7.30 and a pIC50 ([2]; class symbols) greater than 7.30.
With `C#Cc1c(F)ccc2cc(O)cc(-c3ncc4c(N5CC6CCC(CC(F)F)(C5)N6)nc(OC[C@@]56CCCN5C[C@H](F)C6)nc4c3F)c12` (stereo partly drawn) [Example 21, 4-(4-(1-(2,2-difluoroethyl)-3,8-diazabicyclo[3.2.1]octan-3-yl)-8-fluoro-2-(((2R,7aS)-2-fluorotetrahydro-1H-pyrrolizin-7a(5H)-yl)methoxy)pyrido[4,3-d]pyrimidin-7-yl)-5-ethynyl-6-fluoronaphthalen-2-ol] the pIC50 ([1]; class symbols) was 6.30 to 7.30 and the pIC50 ([2]; class symbols) was greater than 7.30.
In the case of `C#Cc1c(F)ccc2cc(O)cc(-c3ncc4c(N5CC6CCC(C(=O)O)(C5)N6)nc(OC[C@@]56CCCN5C[C@H](F)C6)nc4c3F)c12` (stereo partly drawn) [Example 22, 3-(7-(8-ethynyl-7-fluoro-3-hydroxynaphthalen-1-yl)-8-fluoro-2-(((2R,7aS)-2-fluorotetrahydro-1H-pyrrolizin-7a(5H)-yl)methoxy)pyrido[4,3-d]pyrimidin-4-yl)-3,8-diazabicyclo[3.2.1] octan-1-carboxylic acid], the pIC50 ([1]; class symbols) was 6.30 to 7.30 and the pIC50 ([2]; class symbols) was less than 6.30.
Molecule `C#Cc1c(F)ccc2cc(O)cc(-c3ncc4c(N5CC6CCC(C(=O)OC)(C5)N6)nc(OC[C@@]56CCCN5C[C@H](F)C6)nc4c3F)c12` (stereo partly drawn) [Example 23, methyl 3-(7-(8-ethynyl-7-fluoro-3-hydroxynaphthalen-1-yl)-8-fluoro-2-(((2R,7aS)-2-fluorotetrahydro-1H-pyrrolizin-7a(5H)-yl)methoxy)pyrido[4,3-d]pyrimidin-4-yl)-3,8-diazabicyclo[3.2.1] octan-1-carboxylate] has a pIC50 ([1]; class symbols) of 6.30 to 7.30 and a pIC50 ([2]; class symbols) of 6.30 to 7.30.
With `C#Cc1c(F)ccc2cc(O)cc(-c3ncc4c(N5CC6CCC(CN(C)C)(C5)N6)nc(OC[C@@]56CCCN5C[C@H](F)C6)nc4c3F)c12` (stereo partly drawn) [Example 24, 4-(4-(1-((dimethylamino)methyl)-3,8-diazabicyclo[3.2.1]octan-3-yl)-8-fluoro-2-(((2R,7aS)-2-fluorotetrahydro-1H-pyrrolizin-7a(5H)-yl)methoxy)pyrido[4,3-d]pyrimidin-7-yl)-5-ethynyl-6-fluoronaphthalen-2-ol] the pIC50 ([1]; class symbols) was 6.30 to 7.30 and the pIC50 ([2]; class symbols) was greater than 7.30.
`C#Cc1c(F)ccc2cc(O)cc(-c3ncc4c(N5CC6CCC(CN(C)C(C)=O)(C5)N6)nc(OC[C@@]56CCCN5C[C@H](F)C6)nc4c3F)c12` (stereo partly drawn) [Example 25, N-((3-(7-(8-ethynyl-7-fluoro-3-hydroxynaphthalen-1-yl)-8-fluoro-2-(((2R,7aS)-2-fluorotetrahydro-1H-pyrrolizin-7a(5H)-yl)methoxy)pyrido[4,3-d]pyrimidin-4-yl)-3,8-diazabicyclo[3.2.1]octan-1-yl)methyl)-N-methylacetamide] was tested, and the pIC50 ([1]; class symbols) was 6.30 to 7.30 and the pIC50 ([2]; class symbols) was less than 6.30.
`C#Cc1c(F)ccc2cc(O)cc(-c3ncc4c(N5CC6CCC(/C=C\F)(C5)N6)nc(OC[C@@]56CCCN5C[C@H](F)C6)nc4c3F)c12` (stereo partly drawn) [Example 27, 5-ethynyl-6-fluoro-4-(8-fluoro-2-(((2R,7aS)-2-fluorotetrahydro-1H-pyrrolizin-7a(5H)-yl)methoxy)-4-(1-((Z)-2-fluorovinyl)-3,8-diazabicyclo[3.2.1]octan-3-yl)pyrido[4,3-d]pyrimidin-7-yl) naphthalen-2-ol] gave a pIC50 ([1]; numeric values) of 7.27 and a pIC50 ([2]; numeric values) of 7.96.
`C#Cc1c(F)ccc2cc(O)cc(-c3ncc4c(N5CC6CCC(/C=C/F)(C5)N6)nc(OC[C@@]56CCCN5C[C@H](F)C6)nc4c3F)c12` (stereo partly drawn) [Example 28, 5-ethynyl-6-fluoro-4-(8-fluoro-2-(((2R,7aS)-2-fluorotetrahydro-1H-pyrrolizin-7a(5H)-yl)methoxy)-4-(1-((E)-2-fluorovinyl)-3,8-diazabicyclo[3.2.1]octan-3-yl)pyrido[4,3-d]pyrimidin-7-yl) naphthalen-2-ol] showed a pIC50 ([1]; class symbols) of 6.30 to 7.30 and a pIC50 ([2]; class symbols) greater than 7.30.
`C#Cc1c(F)ccc2cc(O)cc(-c3ncc4c(N5CC6CCC(/C=C\C)(C5)N6)nc(OC[C@@]56CCCN5C[C@H](F)C6)nc4c3F)c12` (stereo partly drawn) [Example 29, 5-ethynyl-6-fluoro-4-(8-fluoro-2-(((2R,7aS)-2-fluorotetrahydro-1H-pyrrolizin-7a(5H)-yl)methoxy)-4-(1-((Z)-prop-1-en-1-yl)-3,8-diazabicyclo[3.2.1]octan-3-yl)pyrido[4,3-d]pyrimidin-7-yl)naphthalen-2-ol] showed a pIC50 ([1]; class symbols) of 6.30 to 7.30 and a pIC50 ([2]; class symbols) greater than 7.30.
In the case of `C#Cc1c(F)ccc2cc(O)cc(-c3ncc4c(N5CC6CCC(CC(=O)OC)(C5)N6)nc(OC[C@@]56CCCN5C[C@H](F)C6)nc4c3F)c12` (stereo partly drawn) [Example 34, Methyl 2-(3-(7-(8-ethynyl-7-fluoro-3-hydroxynaphthalen-1-yl)-8-fluoro-2-(((2R,7aS)-2-fluorohexahydro-1H-pyrrolizin-7a-yl)methoxy)pyrido[4,3-d]pyrimidin-4-yl)-3,8-diazabicyclo[3.2.1]octan-1-yl)acetate], the pIC50 ([1]; class symbols) was greater than 7.30 and the pIC50 ([2]; class symbols) was 6.30 to 7.30.
`[2H]C([2H])([2H])OCC12CCC(CN(c3nc(OC[C@@]45CCCN4C[C@H](F)C5)nc4c(F)c(-c5cc(O)cc6ccc(F)c(C#C)c56)nc(OC)c34)C1)N2` (stereo partly drawn) [Example 36, 5-ethynyl-6-fluoro-4-(8-fluoro-2-(((2R,7aS)-2-fluorotetrahydro-1H-pyrrolizin-7a(5H)-yl)methoxy)-5-methoxy-4-(1-((methoxy-d3)methyl)-3,8-diazabicyclo[3.2.1]octan-3-yl)pyrido[4,3-d]pyrimidin-7-yl)naphthalen-2-ol] gave a pIC50 ([1]; class symbols) of 6.30 to 7.30 and a pIC50 ([2]; class symbols) of 6.30 to 7.30.
Work on `[2H]C([2H])([2H])OC[C@]12CC[C@H](CN(c3nc(OC[C@@]45CCCN4C[C@H](F)C5)nc4c(F)c(-c5cc(O)cc6ccc(F)c(C#C)c56)nc(OCC)c34)C1)N2` [Example 37, 4-(5-ethoxy-8-fluoro-2-(((2R, 7aS)-2-fluorotetrahydro-1H-pyrrolizin-7a(5H)-yl)methoxy)-4-((1S,5R)-1-((methoxy-d3)methyl)-3,8-diazabicyclo [3.2.1]octan-3-yl)pyrido [4,3-d]pyrimidin-7-yl)-5-ethynyl-6-fluoronaphthalen-2-ol] yielded a pIC50 ([1]; class symbols) of 6.30 to 7.30 and a pIC50 ([2]; class symbols) greater than 7.30.
In the case of `[2H]C([2H])([2H])OCC12CCC(CN(c3nc(OC[C@@]45CCCN4C[C@H](F)C5)nc4c(F)c(-c5cc(O)cc6ccc(F)c(C#C)c56)nc(C)c34)C1)N2` (stereo partly drawn) [Example 39, 5-ethynyl-6-fluoro-4-(8-fluoro-2-(((2R,7aS)-2-fluorotetrahydro-1H-pyrrolizin-7a(5H)-yl)methoxy)-4-(1-((methoxy-d3)methyl)-3,8-diazabicyclo[3.2.1]octan-3-yl)-5-methylpyrido[4,3-d]pyrimidin-7-yl)naphthalen-2-ol], the pIC50 ([1]; class symbols) was 6.30 to 7.30 and the pIC50 ([2]; class symbols) was greater than 7.30.
